Source: publication PMC3504386 (Chemmedchem, 2010)

Molecular target: T1, CTP synthetase (CTPS) (Trypanosoma brucei, UniProt Q4GZ95)
T1 construct: gene TB927.1.1240
Assay: coupled spectrophotometric enzyme assay (pyruvate kinase/lactate dehydrogenase), […] min pre-incubation on ice
Type: biochemical

T1 sequence (Q4GZ95 entry or part of it): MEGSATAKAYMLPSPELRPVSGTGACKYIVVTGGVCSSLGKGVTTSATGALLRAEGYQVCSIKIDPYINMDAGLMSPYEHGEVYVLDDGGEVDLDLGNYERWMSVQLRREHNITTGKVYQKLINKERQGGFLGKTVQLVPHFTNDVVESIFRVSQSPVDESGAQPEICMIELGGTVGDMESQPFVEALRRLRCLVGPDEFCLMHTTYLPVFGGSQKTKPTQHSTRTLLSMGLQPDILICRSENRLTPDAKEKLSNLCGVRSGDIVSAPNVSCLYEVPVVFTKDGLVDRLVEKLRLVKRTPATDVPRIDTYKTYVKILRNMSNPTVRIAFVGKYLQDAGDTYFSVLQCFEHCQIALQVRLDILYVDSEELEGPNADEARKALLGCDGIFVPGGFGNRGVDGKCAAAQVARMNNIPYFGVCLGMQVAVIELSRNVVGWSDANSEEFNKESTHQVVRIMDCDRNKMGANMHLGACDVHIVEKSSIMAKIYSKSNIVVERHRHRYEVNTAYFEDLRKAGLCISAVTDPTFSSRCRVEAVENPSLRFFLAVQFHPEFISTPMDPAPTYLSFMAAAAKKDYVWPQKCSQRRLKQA

| Structure (SMILES) | IC50 [µM] |
| --- | --- |
| N[C@H](C(=O)O)[C@@H]1CC(Cl)=NO1 [compound 1, Acivicin] | 0.32 ± 0.025 |
| N[C@H](C(=O)O)[C@@H]1CC(Br)=NO1 [compound 2, (αS,5S)-α-amino-3-bromo-4,5-dihydroisoxazol-5-yl acetic acid] | 0.098 ± 0.01 |
